Test results reported in the NIST ThermoML archive (doi:10.1021/je400473z).

Test: wn = mass fraction of the nth substance listed
Conditions: 101 kPa, Liquid, Vibrating tube method

CC#N [acetonitrile] + O
mass density [kg/m3]
Conditions	293.15 K	303.15 K	313.15 K
w1 = 0.1	983.2	978.7	973.5
w1 = 0.2	964.2	958.2	951.6
w1 = 0.4	918.7	910.9	902.8
